From patent US9895338B1, “Cobalt-polypyridyl complex for treatment of cancer, a pharmaceutical composition and a kit comprising it” (Macau University of Science and Technology, priority 2016, dated 2018)

Columns and labels:
[1] = system: A549 (lung cancer); test: MTT cytotoxicity assay, A549; format: cell-based; conditions: 72 h
Protocol: (§1) All prepared cobalt-polypyridyl complexes were dissolved in DMSO at a final concentration of 50 mmol/L and stored at −20° C. before use. Cytotoxicity was assessed by using the 3-(4,5-dimethylthiazol-2-yl)-2,5-diphenyltetrazolium bromide (MTT) (5.0 mg/ml) assay as previously described (Wong, V. K. et al., Cell Death Dis, 2013, 4, e720). Briefly, 4×10^3 cells per well were seeded in 96-well plates before drug treatments. After overnight culture, the cells were then exposed to different concentrations of selected compounds (0.039-100 μmol/L) for 72 h. Cells without drug treatment were used as control. Subsequently, MTT (10 μL) solution was added to each well and incubated at 37° C. for 4 h followed by the addition of 100 μL solubilization buffer (10% SDS in 0.01 mol/L HCl) and overnight incubation. A570 nm was then determined in each well on the next day. The percentage of cell viability was calculated using the following formula: Cell viability (%)=Atreated/Acontrol×100. Data were obtained from three independent experiments. Cells include HeLa cells (cervical cancer), MCF-7 (breast cancer), H1299, H1975, A549 and LLC-1 (lung cancer), HepG2 and Hep3B (liver cancer) and LO2 (normal human hepatocytes).

[2] = system: Taxol-sensitive HCT8 cancer cells; test: MTT cytotoxicity, taxol-sensitive HCT8; format: cell-based; conditions: 72 h
Protocol: as §1, with “experiments.” for “experiments. Cells include HeLa cells (cervical cancer), MCF-7 (breast cancer), H1299, H1975, A549 and LLC-1 (lung cancer), HepG2 and Hep3B (liver cancer) and LO2 (normal human hepatocytes).”

[3] = system: OV2008 cervical cancer cells; test: MTT cytotoxicity, OV2008 (cisplatin-sensitive); format: cell-based; conditions: 72 h
Protocol: as §1, with “experiments.” for “experiments. Cells include HeLa cells (cervical cancer), MCF-7 (breast cancer), H1299, H1975, A549 and LLC-1 (lung cancer), HepG2 and Hep3B (liver cancer) and LO2 (normal human hepatocytes).”
(§2) Cisplatin-sensitive or -resistant A2780, OV2008 and C13 cancer cells were provided by Prof. Benjamin Tsang (Department of Obstetrics and Gynecology and Department of Cellular and Molecular Medicine, University of Ottawa, Canada). HCT116 p53^+/+ and p53^−/− isogenic human colon cancer cells were provided by Professor Bert Vogelstein (Ludwig Center at Johns Hopkins, Howard Hughes Medical Institute, USA). All media were supplemented with 10% fetal bovine serum and the antibiotics penicillin (50 U/ml) and streptomycin (50 μg/ml; Invitrogen, Paisley, Scotland, UK). All cell cultures were incubated at 37° C. in a 5% humidified CO2 incubator.

[4] = system: Taxol-sensitive A549 cancer cells; test: MTT cytotoxicity, taxol-sensitive A549; format: cell-based; conditions: 72 h
Protocol: as §1, with “experiments.” for “experiments. Cells include HeLa cells (cervical cancer), MCF-7 (breast cancer), H1299, H1975, A549 and LLC-1 (lung cancer), HepG2 and Hep3B (liver cancer) and LO2 (normal human hepatocytes).”

[5] = system: cisplatin-sensitive SGC-7901 gastric cancer cells; test: MTT cytotoxicity, cisplatin-sensitive SGC-7901; format: cell-based; conditions: SGC-7901, MTT, 72 h
Protocol: as §1, with “experiments.” for “experiments. Cells include HeLa cells (cervical cancer), MCF-7 (breast cancer), H1299, H1975, A549 and LLC-1 (lung cancer), HepG2 and Hep3B (liver cancer) and LO2 (normal human hepatocytes).”

[6] = system: H1975 (lung cancer); test: MTT cytotoxicity assay, H1975; format: cell-based; conditions: 72 h
Protocol: as §1

[7] = system: HeLa cells (cervical cancer); test: MTT cytotoxicity assay, HeLa; format: cell-based; conditions: 72 h
Protocol: as §1

[8] = system: LLC-1 (lung cancer); test: MTT cytotoxicity assay, LLC-1; format: cell-based; conditions: LLC-1, MTT, 72 h
Protocol: as §1

[9] = system: MCF-7 (breast cancer); test: MTT cytotoxicity assay, MCF-7; format: cell-based; conditions: MCF-7, MTT, 72 h
Protocol: as §1

[10] = system: LO2 (normal human hepatocytes); test: MTT cytotoxicity assay, LO2; format: cell-based; conditions: 72 h
Protocol: as §1

[11] = system: Taxol-resistant MCF-7 cancer cells; test: MTT cytotoxicity, taxol-resistant MCF-7; format: cell-based; conditions: for IC50: MCF-7, MTT, 72 h; for Resistant Factor: MCF-7, IC50 taxol-resistant over IC50 taxol-sensitive
Protocol: as §1, with “experiments.” for “experiments. Cells include HeLa cells (cervical cancer), MCF-7 (breast cancer), H1299, H1975, A549 and LLC-1 (lung cancer), HepG2 and Hep3B (liver cancer) and LO2 (normal human hepatocytes).”
(§3) All cells were obtained from the American Type Culture Collection (Rockville, Md., USA) unless otherwise specified. Immortalized wild-type and Atg7-deficient mouse embryonic fibroblasts (MEFs) were provided by Professor Masaaki Komatsu (Juntendo University, School of Medicine, Japan). Taxol-resistant types of A549, MCF-7, HCT-8 cancer cells, cisplatin-resistant SGC7901 cancer cells were purchased from KeyGEN BioTECH, China.

[12] = system: HCT116 p53^−/− colon cancer cells; test: MTT cytotoxicity, HCT116 p53-/-; format: cell-based, human; conditions: for Resistant Factor: HCT116 p53^−/− over HCT116 p53^+/+; for IC50: MTT, 72 h
Protocol: as §1, with “experiments.” for “experiments. Cells include HeLa cells (cervical cancer), MCF-7 (breast cancer), H1299, H1975, A549 and LLC-1 (lung cancer), HepG2 and Hep3B (liver cancer) and LO2 (normal human hepatocytes).”
as §2

[13] = system: Taxol-resistant A549 cancer cells; test: MTT cytotoxicity, taxol-resistant A549; format: cell-based; conditions: for IC50: A549, MTT, 72 h; for Resistant Factor: A549, IC50 taxol-resistant over IC50 taxol-sensitive
Protocol: as §1, with “experiments.” for “experiments. Cells include HeLa cells (cervical cancer), MCF-7 (breast cancer), H1299, H1975, A549 and LLC-1 (lung cancer), HepG2 and Hep3B (liver cancer) and LO2 (normal human hepatocytes).”
as §3

[14] = system: HepG2 (liver cancer); test: MTT cytotoxicity assay, HepG2; format: cell-based; conditions: 72 h
Protocol: as §1

[15] = system: HCT116 p53^+/+ colon cancer cells; test: MTT cytotoxicity, HCT116 p53+/+; format: cell-based, human; conditions: 72 h
Protocol: as §1, with “experiments.” for “experiments. Cells include HeLa cells (cervical cancer), MCF-7 (breast cancer), H1299, H1975, A549 and LLC-1 (lung cancer), HepG2 and Hep3B (liver cancer) and LO2 (normal human hepatocytes).”
as §2

[16] = system: Taxol-sensitive MCF-7 cancer cells; test: MTT cytotoxicity, taxol-sensitive MCF-7; format: cell-based; conditions: MCF-7, MTT, 72 h
Protocol: as §1, with “experiments.” for “experiments. Cells include HeLa cells (cervical cancer), MCF-7 (breast cancer), H1299, H1975, A549 and LLC-1 (lung cancer), HepG2 and Hep3B (liver cancer) and LO2 (normal human hepatocytes).”

[17] = system: cisplatin-sensitive A2780 ovarian cancer cells; test: MTT cytotoxicity, cisplatin-sensitive A2780; format: cell-based; conditions: 72 h
Protocol: as §1, with “experiments.” for “experiments. Cells include HeLa cells (cervical cancer), MCF-7 (breast cancer), H1299, H1975, A549 and LLC-1 (lung cancer), HepG2 and Hep3B (liver cancer) and LO2 (normal human hepatocytes).”
as §2

[18] = system: cisplatin-resistant SGC-7901 gastric cancer cells; test: MTT cytotoxicity, cisplatin-resistant SGC-7901; format: cell-based; conditions: for IC50: SGC-7901, MTT, 72 h; for Resistant Factor: SGC-7901, cisplatin-resistant over cisplatin-sensitive
Protocol: as §1, with “experiments.” for “experiments. Cells include HeLa cells (cervical cancer), MCF-7 (breast cancer), H1299, H1975, A549 and LLC-1 (lung cancer), HepG2 and Hep3B (liver cancer) and LO2 (normal human hepatocytes).”
as §3

[19] = system: Taxol-resistant HCT8 cancer cells; test: MTT cytotoxicity, taxol-resistant HCT8; format: cell-based; conditions: for IC50: HCT8, MTT, 72 h; for Resistant Factor: HCT8, IC50 taxol-resistant over IC50 taxol-sensitive
Protocol: as §1, with “experiments.” for “experiments. Cells include HeLa cells (cervical cancer), MCF-7 (breast cancer), H1299, H1975, A549 and LLC-1 (lung cancer), HepG2 and Hep3B (liver cancer) and LO2 (normal human hepatocytes).”
as §3

[20] = system: OV2008/C13 cervical cancer cells; test: MTT cytotoxicity, OV2008/C13 (cisplatin-resistant); format: cell-based; conditions: for IC50: OV2008/C13, MTT, 72 h; for Resistant Factor: OV2008/C13 over OV2008
Protocol: as §1, with “experiments.” for “experiments. Cells include HeLa cells (cervical cancer), MCF-7 (breast cancer), H1299, H1975, A549 and LLC-1 (lung cancer), HepG2 and Hep3B (liver cancer) and LO2 (normal human hepatocytes).”
as §2

[21] = system: H1299 (lung cancer); test: MTT cytotoxicity assay, H1299; format: cell-based, human; conditions: 72 h
Protocol: as §1

[22] = system: cisplatin-resistant A2780 ovarian cancer cells; test: MTT cytotoxicity, cisplatin-resistant A2780; format: cell-based; conditions: for IC50: A2780, MTT, 72 h; for Resistant Factor: A2780, cisplatin-resistant over cisplatin-sensitive
Protocol: as §1, with “experiments.” for “experiments. Cells include HeLa cells (cervical cancer), MCF-7 (breast cancer), H1299, H1975, A549 and LLC-1 (lung cancer), HepG2 and Hep3B (liver cancer) and LO2 (normal human hepatocytes).”
as §2

[23] = system: Hep 3B (liver cancer); test: MTT cytotoxicity assay, Hep3B; format: cell-based; conditions: 72 h
Protocol: as §1

SMILES	IC50 [1] [µM]	IC50 [2] [µM]	IC50 [3] [µM]	IC50 [4] [µM]	IC50 [5] [µM]	IC50 [6] [µM]	IC50 [7] [µM]	IC50 [8] [µM]	IC50 [9] [µM]	IC50 [10] [µM]	IC50 [11] [µM]	Resistant Factor [11]	Resistant Factor [12]	IC50 [12] [µM]	IC50 [13] [µM]	Resistant Factor [13]	IC50 [14] [µM]	IC50 [15] [µM]	IC50 [16] [µM]	IC50 [17] [µM]	also measured
F[P-](F)(F)(F)(F)F.F[P-](F)(F)(F)(F)F.F[P-](F)(F)(F)(F)F.[Co+3].c1ccc(-c2ccccn2)nc1.c1ccc(-c2ccccn2)nc1.c1ccc(-c2ccccn2)nc1 [complex (VI), [Co^III(N^N)3](PF6)3]	37.2	18.5	42.5	51.7	41.1	21	35.9	29.2	10.1	43.7	5.01	0.62	1.00	45	11.1	0.21	22.7	45.1	8.02	55	IC50 [18]: 41.7 µM; Resistant Factor [18]: 1.01; IC50 [19]: 10.2 µM; Resistant Factor [19]: 0.55; IC50 [20]: 37.4 µM; Resistant Factor [20]: 0.88; IC50 [21]: 14.9 µM; IC50 [22]: 54.1 µM; Resistant Factor [22]: 0.98; IC50 [23]: 13.8 µM
COc1ccnc(-c2cc(OC)ccn2)c1.COc1ccnc(-c2cc(OC)ccn2)c1.COc1ccnc(-c2cc(OC)ccn2)c1.F[P-](F)(F)(F)(F)F.F[P-](F)(F)(F)(F)F.F[P-](F)(F)(F)(F)F.[Co+3] [complex (VII), [Co^III(4,4′-(OMe)2-Bpy)3](PF6)3]	18.6	4.3	14	15	21.6	9.31	12.8	8.71	10.8	20.6	6.28	0.66	0.53	41.3	2.85	0.19	15.4	77.8	9.45	24	IC50 [18]: 20.7 µM; Resistant Factor [18]: 0.96; IC50 [19]: 1.04 µM; Resistant Factor [19]: 0.24; IC50 [20]: 20.3 µM; Resistant Factor [20]: 1.45; IC50 [21]: 8.71 µM; IC50 [22]: 27 µM; Resistant Factor [22]: 1.13; IC50 [23]: 5.33 µM
